Experimental data published in US8907128B2, “Boron compound with amino acid skeleton containing cyclo ring-type ring” (Stella Pharma Corporation, priority 2010, dated 2014).

System: rat glima cells (C6)
Assay: Cytotoxicity test (WST-8)
Format: cell-based
Conditions: 48 hours culture with boron agent, WST-8 absorbance at 450 nm
Method: Using a 96-well microplate, rat glima cells (C6) were seeded at a density of 1.5×10^4 cells/ml per well and then cultured at room temperature (37° C., 5% CO2) for 16 hours. The culture fluid was taken out by suction and the culture fluids containing boron agents at various concentrations obtained in the Examples were added to respective wells in an amount of […] each. After culturing at room temperature (37° C., 5% CO2) for 48 hours, the culture fluid was taken out by suction, […] portions of WST-8 solution were added respectively, and culture was further carried out at room temperature (37° C., 5% CO2) for 4 hours. Using a microplate reader, the absorbance at a wavelength of 450 nm (reference wavelength: 655 nm) was measured and the absorbance of wells not containing cells was employed as background control, to determine each IC50 value.

Molecule	IC50 [µM]	IC50 (Rattus norvegicus) [µM]
1-amino-4-[(undecahydrododecaboranyl-thio)methyl]cyclohexanone-1-carboxylic acid disodium salt [cis-ACHC-BSH]	< 300	–
N[C@@H](Cc1ccc(B(O)O)cc1)C(=O)O [L-BPA, 4-borono-L-phenylalanine, reference compound]	–	> 2000
cis-1-amino-3-(dodecaboranylthiomethyl)cyclobutanecarboxylic acid trisodium salt [cis-ACBC-BSH]	2500	–
trans-1-amino-3-(dodecaboranylthiomethyl)cyclobutane-carboxylic acid trisodium salt [trans-ACBC-BSH]	2100	–
